In ChEMBL document CHEMBL1201862, “PubChem BioAssay data set” (2004):
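Method: 48-hour compound exposure of cells in 96-well plates, five concentrations, linear interpolation of endpoints. Here, GI50 denotes the concentration required for 50% inhibition of growth.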 Calls of active or inactive are those of the source. Rule as the data show it: active = GI50 up to about 1.1 µM and inactive = higher.

Key:
Assay in all cases: DTP human tumour cell line panel, 48 h
NCI-H23 = test system: NCI-H23
MCF7 = test system: MCF7
A549 = test system: A549
HCT-116 = test system: HCT-116
SW-620 = test system: SW-620
NCI/ADR-RES = test system: NCI/ADR-RES
LOX IMVI = test system: LOX IMVI
SN12C = test system: SN12C
COLO 205 = test system: COLO 205
EKVX = test system: EKVX
HOP-92 = test system: HOP-92
Hs-578T = test system: Hs-578T
NCI-H522 = test system: NCI-H522
K562 = test system: K562
UO-31 = test system: UO-31
UACC-257 = test system: UACC-257
OVCAR-4 = test system: OVCAR-4
MDA-MB-231 = test system: MDA-MB-231
A498 = test system: A498

Measured: GI50

CCOC(=O)Cc1nn2c(=O)cc(C)nc2s1
inactive: NCI-H23 > 100 µM | MCF7 > 100 µM | A549 > 100 µM | HCT-116 > 100 µM | SW-620 > 100 µM | NCI/ADR-RES > 100 µM | LOX IMVI > 100 µM | SN12C > 100 µM | COLO 205 > 100 µM | EKVX > 100 µM | HOP-92 > 100 µM | Hs-578T > 100 µM | NCI-H522 > 100 µM | K562 > 100 µM | UO-31 > 100 µM | UACC-257 > 100 µM | OVCAR-4 > 100 µM | MDA-MB-231 > 100 µM

CCOC(=O)c1cc2c3c(cc(OC)c2[nH]1)N(C(=O)OCC)CC3
inactive: NCI-H23 > 100 µM | MCF7 > 100 µM | A549 > 100 µM | HCT-116 > 100 µM | SW-620 > 100 µM | NCI/ADR-RES > 100 µM | LOX IMVI > 100 µM | SN12C > 100 µM | COLO 205 > 100 µM | EKVX 42.5 µM | HOP-92 > 100 µM | Hs-578T > 100 µM | K562 > 100 µM | UO-31 > 100 µM | UACC-257 > 100 µM | OVCAR-4 > 100 µM | A498 > 100 µM | MDA-MB-231 > 100 µM

O=C1C(=c2cc3c(c4ccccc24)=NC24CCCCC2C(c2ccccc2)C=C(c2ccccc2)N34)C(=O)c2ccccc21 (stereo unspecified)
inactive: MCF7 14.4 µM | A549 41 µM | HCT-116 36.2 µM | SW-620 37.7 µM | LOX IMVI 34.2 µM | SN12C > 100 µM | COLO 205 33 µM | EKVX 12.7 µM | HOP-92 27.9 µM | Hs-578T 34 µM | NCI-H522 16.7 µM | K562 23 µM | UO-31 22.9 µM | UACC-257 > 100 µM | OVCAR-4 15.5 µM | A498 > 100 µM | MDA-MB-231 15.4 µM

CC1(C)C(CCO)CC1n1ccc(=O)[nH]c1=O (stereo unspecified)
inactive: MCF7 > 100 µM | A549 > 100 µM | HCT-116 > 100 µM | SW-620 > 100 µM | NCI/ADR-RES > 100 µM | LOX IMVI > 100 µM | SN12C > 100 µM | EKVX > 100 µM | HOP-92 > 100 µM | Hs-578T > 100 µM | K562 10.6 µM | UO-31 > 100 µM | UACC-257 > 100 µM | OVCAR-4 > 100 µM | A498 > 100 µM | MDA-MB-231 > 100 µM

COc1cc(S(=O)(=O)Nc2ccc(-c3csc(N4C(=O)CSC4c4ccccc4)n3)cc2)ccc1Cl (stereo unspecified)
active: A549 0.785 µM | A498 0.116 µM
inactive: NCI-H23 > 100 µM | MCF7 22.6 µM | HCT-116 54 µM | SW-620 42.4 µM | NCI/ADR-RES > 100 µM | LOX IMVI 30.5 µM | SN12C > 100 µM | COLO 205 35.6 µM | EKVX 20.6 µM | HOP-92 20.6 µM | Hs-578T 55.6 µM | NCI-H522 34.4 µM | K562 39.7 µM | UO-31 79.4 µM | UACC-257 40.9 µM | OVCAR-4 29.9 µM

C[C@H](c1ccccc1)N1C(=O)[C@@H](O)[C@H]1[C@H](CO)OCc1ccccc1
inactive: NCI-H23 > 100 µM | MCF7 > 100 µM | A549 > 100 µM | HCT-116 > 100 µM | SW-620 > 100 µM | NCI/ADR-RES > 100 µM | LOX IMVI > 100 µM | SN12C > 100 µM | COLO 205 > 100 µM | EKVX > 100 µM | HOP-92 96.4 µM | Hs-578T > 100 µM | K562 > 100 µM | UO-31 > 100 µM | UACC-257 > 100 µM | OVCAR-4 > 100 µM | A498 20 µM | MDA-MB-231 > 100 µM

COc1ccc2c(c1)CCC/C2=N\NS(=O)(=O)c1c(C)cc(C)cc1C
inactive: NCI-H23 24.8 µM | MCF7 37.8 µM | A549 34.9 µM | HCT-116 18.3 µM | SW-620 28.1 µM | NCI/ADR-RES 21.7 µM | LOX IMVI 19.4 µM | SN12C 21.8 µM | COLO 205 23.9 µM | EKVX 23.2 µM | HOP-92 20.3 µM | Hs-578T 30.6 µM | K562 18.1 µM | UO-31 28.9 µM | UACC-257 39.2 µM | OVCAR-4 29.9 µM | A498 31.8 µM | MDA-MB-231 30.8 µM

O=C1Nc2ccccc2C1Cc1ccc([N+](=O)[O-])cc1 (stereo unspecified)
inactive: NCI-H23 > 100 µM | MCF7 > 100 µM | A549 > 100 µM | HCT-116 > 100 µM | SW-620 > 100 µM | NCI/ADR-RES > 100 µM | LOX IMVI > 100 µM | SN12C > 100 µM | COLO 205 50 µM | EKVX > 100 µM | Hs-578T 63.4 µM | NCI-H522 35.9 µM | K562 > 100 µM | UO-31 > 100 µM | UACC-257 > 100 µM | OVCAR-4 84.5 µM | MDA-MB-231 14 µM

Oc1ccc([C@H]2c3c(O)cc(O)cc3C3c4c(cc(O)cc4[C@@H]2[C@H]2c4cc(O)cc5c4C(c4cc(O)cc(O)c4[C@@H]2c2ccc(O)cc2)[C@@H](c2ccc(O)cc2)O5)O[C@@H]3c2ccc(O)cc2)cc1 (stereo partly specified)
active: NCI-H23 0.526 µM | MCF7 0.955 µM | A549 0.634 µM | HCT-116 0.861 µM | COLO 205 0.348 µM | EKVX 0.29 µM | Hs-578T 0.0497 µM | UACC-257 0.356 µM | OVCAR-4 0.83 µM
inactive: NCI/ADR-RES > 100 µM | LOX IMVI 2.41 µM | SN12C > 100 µM | NCI-H522 7.45 µM | K562 35.2 µM | MDA-MB-231 > 100 µM

O=C1/C(=C/c2ccccc2)NC(=S)N1CN1CCCCC1
inactive: NCI-H23 > 100 µM | MCF7 > 100 µM | A549 > 100 µM | HCT-116 > 100 µM | SW-620 > 100 µM | NCI/ADR-RES > 100 µM | LOX IMVI > 100 µM | SN12C > 100 µM | COLO 205 > 100 µM | EKVX > 100 µM | HOP-92 > 100 µM | Hs-578T > 100 µM | K562 > 100 µM | UO-31 > 100 µM | UACC-257 16.3 µM | OVCAR-4 15 µM | A498 99.5 µM | MDA-MB-231 > 100 µM

Brc1ccc(-c2cc(-c3ccc4c(c3)OCO4)c(-c3cccs3)n2Cc2ccccc2)cc1
inactive: MCF7 > 100 µM | A549 > 100 µM | HCT-116 > 100 µM | SW-620 > 100 µM | NCI/ADR-RES > 100 µM | SN12C > 100 µM | COLO 205 > 100 µM | EKVX > 100 µM | Hs-578T > 100 µM | K562 > 100 µM | UO-31 > 100 µM | UACC-257 > 100 µM | OVCAR-4 > 100 µM | MDA-MB-231 > 100 µM

CN(C)/C=N/c1ccc2nonc2c1
inactive: NCI-H23 > 100 µM | MCF7 > 100 µM | A549 > 100 µM | HCT-116 > 100 µM | SW-620 > 100 µM | NCI/ADR-RES > 100 µM | SN12C > 100 µM | COLO 205 > 100 µM | EKVX > 100 µM | Hs-578T > 100 µM | NCI-H522 > 100 µM | K562 > 100 µM | UO-31 > 100 µM | UACC-257 > 100 µM | OVCAR-4 > 100 µM | A498 > 100 µM | MDA-MB-231 > 100 µM

Cc1ccc(/N=C2\OP(=O)(Nc3ccc(C)cc3)Oc3ccccc32)cc1 (stereo unspecified)
inactive: NCI-H23 > 100 µM | MCF7 90.6 µM | A549 > 100 µM | HCT-116 87.9 µM | SW-620 > 100 µM | NCI/ADR-RES > 100 µM | LOX IMVI > 100 µM | SN12C > 100 µM | COLO 205 > 100 µM | EKVX > 100 µM | HOP-92 30 µM | Hs-578T > 100 µM | K562 50.6 µM | UO-31 97.7 µM | UACC-257 > 100 µM | OVCAR-4 > 100 µM | A498 > 100 µM | MDA-MB-231 > 100 µM

Cc1ccc(SC(=O)N2C(=S)N=C(NC3CCCCC3)C23CCCCC3)cc1
inactive: NCI-H23 > 100 µM | MCF7 51.2 µM | A549 75.5 µM | HCT-116 > 100 µM | SW-620 > 100 µM | NCI/ADR-RES > 100 µM | LOX IMVI 95.5 µM | SN12C > 100 µM | COLO 205 43.4 µM | EKVX > 100 µM | HOP-92 > 100 µM | Hs-578T 62.2 µM | NCI-H522 65.8 µM | K562 > 100 µM | UO-31 46.6 µM | UACC-257 82.8 µM | OVCAR-4 > 100 µM | MDA-MB-231 > 100 µM

CC1(c2nc3ccccc3[nH]2)CCC(C(=O)O)C(C)(C)O1 (stereo unspecified)
inactive: NCI-H23 > 100 µM | MCF7 > 100 µM | A549 > 100 µM | HCT-116 > 100 µM | SW-620 > 100 µM | NCI/ADR-RES > 100 µM | LOX IMVI > 100 µM | SN12C > 100 µM | COLO 205 > 100 µM | EKVX > 100 µM | HOP-92 > 100 µM | Hs-578T > 100 µM | NCI-H522 > 100 µM | K562 > 100 µM | UO-31 > 100 µM | UACC-257 > 100 µM | OVCAR-4 > 100 µM | MDA-MB-231 > 100 µM

O=C(C(=O)n1ccc2ccccc21)c1c[nH]c2ccccc12
inactive: NCI-H23 > 10 µM | MCF7 > 10 µM | A549 > 10 µM | HCT-116 > 10 µM | SW-620 > 10 µM | NCI/ADR-RES > 10 µM | LOX IMVI > 10 µM | SN12C > 10 µM | COLO 205 > 10 µM | EKVX > 10 µM | HOP-92 > 10 µM | Hs-578T > 10 µM | NCI-H522 > 10 µM | K562 > 10 µM | UO-31 > 10 µM | UACC-257 > 10 µM | OVCAR-4 > 10 µM | MDA-MB-231 > 10 µM
